Data taken from patent US5753614A, “Nisin compositions for use as enhanced, broad range bactericides” (AMBI Inc., priority 1995, dated 1998).

Key:
[1] = tested on: Listeria monocytogenes; assay: Bactericidal activity towards Listeria monocytogenes in milk; assay type: cell-based; settings: for % Survival 2 hr: L. monocytogenes in milk
Method: (§1) All tests in the following examples were performed at 37° C. The efficacy of the enhanced broad range bactericides was determined by assaying bactericidal activity as measured by the percent bacterial survival after treatment with the bactericide. Generally, after incubation of a 10^7 cell per ml suspension of target species with the novel bactericide for specified lengths of time, bacteria were collected by centrifugation for 2 minutes. The bacterial pellet was washed free of the bactericide with a rescue buffer, termed herein Phage buffer (50 mM Tris-HCl buffer pH 7.8, 1 mM MgSO4, 4 mM CaCl2, 0.1M Nacl, and 0.1% gelatin), resuspended and serially diluted into Phage buffer, and 100 μl of the suspended bacteria were spread on nutrient agar plates. Surviving bacteria were determined by scoring colony forming units (CFU) after incubation for 24-48 hours at 37° C.
An example of where the application of nisin is limited by its available activity is illustrated by the data in Table 15B.
(§2) Incubations were in milk at 37° C.

[2] = tested on: Streptococcus agalactiae; assay: Bactericidal activity towards Streptococcus agalactiae in milk; assay type: cell-based; settings: S. agalactiae in milk
Method: as §1
However, the combination of the two agents, 0.1% monolaurin and nisin 0.2 μg/ml, is extremely potent towards S. agalactiae. […] Thus, when the application of nisin is limited by its available activity, a bactericide comprising nisin with a surfactant can be expected to be more useful.
as §2

[3] = tested on: S. typhimurium; assay: Bactericidal activity, percent survival of S. typhimurium suspension; assay type: cell-based, Salmonella typhimurium; settings: for % Survival at 2 hours: S. typhimurium
Method: as §1
The control (Test #1) is identical to the control of Example 1 (Table 1).

[4] = tested on: E. coli; assay: Bactericidal activity, percent survival of E. coli at 2 hours; assay type: cell-based, Escherichia coli; settings: for Percentage E. coli Survival at 2 hours: Tris pH 8.0
Method: as §1
The effects of the bactericide were measured as a function of percentage bacteria survival after 2 hours.

[5] = tested on: K. pneumoniae; assay: Bactericidal activity, percent survival of K. pneumoniae; assay type: cell-based, Klebsiella pneumoniae
Method: as §1
The effect was measured as a function of percentage bacterial survival after 2 hours.

[6] = tested on: S. typhimurium on chicken muscle; assay: Bactericidal activity towards S. typhimurium on chicken muscle (unadhered cells); assay type: cell-based, Salmonella typhimurium
Method: Incubations were performed in either 50 mM sodium acetate, pH 5.0, or 20 mM Tris, pH 8.0 at 37° C.
Cubes of chicken muscle were cleansed with sodium hypochlorite and povidone iodine prior to use. To inoculate the tissue, the cubes of chicken muscle were dipped into a 10^8 cells/ml suspension of S. typhimurium in 20 mM Tris HCl, pH 8.0. Excess moisture was removed from dipped cubes by tapping. The chicken samples were placed into sufficient buffer containing the nisin composition to cover the tissue and incubated for 2 hours at 37° C. after which the tissue was removed to sufficient Phage buffer to cover the tissue. The bacteria remaining in the test solution were collected by centrifugation, washed with Phage buffer, and combined with bacteria washed from the tissue by Phage buffer. The combined samples (termed "unadhered" cells) were serially diluted and 100 μl aliquots were plated for determination of surviving bacteria.
(§3) Cubes of chicken muscle were cleansed with sodium hypochlorite and povidone iodine prior to use. To inoculate the tissue, the cubes of chicken muscle were dipped into a 10^8 cells/ml suspension of S. typhimurium in 20 mM Tris HCl, pH 8.0. Excess moisture was removed from dipped cubes by tapping. The tissue was placed into sufficient buffer containing the nisin compositions to cover the tissue, and incubated for 2 hours at 37° C. after which the tissue was removed to sufficient Phage buffer to cover the tissue. The bacteria remaining in the test solution were collected by centrifugation, washed with Phage buffer, and combined with bacteria washed from the tissue by Phage buffer. The combined samples (termed "unadhered" cells) were serially diluted and 100 μl aliquots were plated for determination of surviving bacteria.
as §3, with “cleaned” for “cleansed”, “50” for “20”, “sodium acetate buffer,” for “Tris HCl,”, “5.0.” for “8.0.”, “containing” for “containing the”

[7] = tested on: Staphylococcus aureus; assay: Bactericidal activity towards Staphylococcus aureus, influence of pH and EDTA; assay type: cell-based; settings: S. aureus
Method: as §1
Incubations were performed in 50 mM sodium acetate buffer, pH 5.0 or 20 m
TrisHCl buffer, pH 8.0 at 37° C.

[8] = tested on: Streptococcus mutans; assay: Bactericidal activity towards Streptococcus mutans at 2 hr; assay type: cell-based; settings: S. mutans; nisin 0.1 μg/ml, EDTA 0; 20 mM TrisHCl pH 8.0
Method: as §1
(§4) Incubations were performed in 20 mM TrisHCl, pH 8.0 at 37° C.

[9] = tested on: Listeria monocytogenes; assay: Bactericidal activity towards Listeria monocytogenes in Tris buffer; assay type: cell-based; settings: L. monocytogenes
Method: as §1, §4

[10] = tested on: Coryneform bacteria; assay: Bactericidal activity towards Coryneform bacteria; assay type: cell-based, mixed population of axillary Coryneform bacteria
Method: as §1, §4

[11] = tested on: Streptococcus mutans; assay: Kinetics of bactericidal activity towards Streptococcus mutans; assay type: cell-based; settings: S. mutans, nisin 0 with 1.0 mM EDTA, pH 7.3
Method: The suspensions were incubated for various times ranging from 0.5 to 60 minutes with the bactericides. The bactericidal efficacy of the bactericides was estimated by determining the percent survival of bacteria.
Incubations were performed in 20 mM TrisHCl, pH 7.3 at 37° C.

[12] = tested on: Escherichia coli; assay: Rapid bactericidal activity towards Escherichia coli (1 min); assay type: cell-based; settings: E. coli; EDTA 1.0 mM, nisin 0; 20 mM Tris pH 7.0
Method: as §1
Incubations were performed in 20 mM Tris, pH 7.0 at 37° C.

[13] = nisin 3.0 μg/ml, EDTA 0, pH 8.0

With monooleate the “% Survival 2 hr” value ([1]; monooleate 0.1%, nisin 0) was 67%, the “% Survival 2 hr” value ([1]; monooleate 1.0%, nisin 0) was 63% and the “bactericidal activity towards L. monocytogenes (in words)” value ([1]; monooleate by itself, in milk) was “no bactericidal activity”.

With `CCCCCCCCCCCC(=O)OCC(O)CO` (stereo not shown) [Monolaurin, monolaurin] the “% survival at 2 h” value ([2]; monolaurin 0.01%, nisin 0) was 100% and the “% survival at 2 h” value ([2]; monolaurin 0.1%, nisin 0) was 4.5%.

With Triton X-100 the “Percentage S. typhimurium Survival at 3 hours” value ([3]; Triton X-100 1.0%, nisin 0, EDTA 0, Tris pH 8.0) was 37.4%, the “Percentage E. coli Survival at 2 hours” value ([4]; Triton X-100 1.0%, nisin 0, EDTA 0) was 100% and the “bactericidal activity towards E. coli (in words)” value ([4]; Triton X-100 1.0%, tests #3 and #4) was “no significant bactericidal activity”.

For Nisin, the “% Survival at 2 hours” value ([3]; nisin 10 ug/ml, EDTA 0, BSA 0 (Table 8)) was 51.3%, the “% Survival at 2 hours” value ([3]; nisin 100 ug/ml, EDTA 0, BSA 0 (Table 8)) was 1.6% and the “% Survival at 2 hours” value ([3]; nisin 100 μg/ml, EDTA 0, pH 5.0) was 0.6%. The “% Survival at 2 hours” value ([3]; nisin 100 μg/ml, EDTA 0, pH 8.0 (Table 6)) was 4%, the “Percentage S. typhimurium Survival at 3 hours” value ([3]; nisin 50 μg/ml, EDTA 0, 20 mM Tris pH 8.0) was 7.0% and the “Percentage S. typhimurium Survival at 3 hours” value ([3]; nisin 100 μg/ml, EDTA 0, 20 mM Tris pH 8.0) was 1.6%. For the same compound, the “Percentage E. coli Survival at 2 hours” value ([4]; nisin 100 μg/ml, EDTA 0, Triton X-100 0) was 25%, the “Percentage E. coli Survival at 2 hours” value ([4]; nisin 300 μg/ml, EDTA 0, Triton X-100 0) was 8.5% and the “% Survival at 2 hours” value ([5]; nisin 100 μg/ml, EDTA 0, 20 mM Tris pH 8.0, 37°C) was 50%. For the same compound, the “% Survival at 2 hours” value ([5]; nisin 300 μg/ml, EDTA 0, Tris pH 8.0) was 38%, the “% Survival at 2 hours (Unadhered cells)” value ([6]; nisin 300 ug/ml, 1% BSA, EDTA 0, pH 8.0) was 0.02% and the “% Survival at 2 hours (Unadhered cells)” value ([6]; nisin 300 ug/ml, EDTA 0, pH 5.0) was 0.1%. For the same compound, the “% Survival at 2 hours (Unadhered cells)” value ([6]; nisin 300 ug/ml, EDTA 0, pH 8.0) was 7.5%, the “% Survival 2 hr” value ([7]; nisin 3.0 μg/ml, EDTA 0, pH 5.0) was 0.6% and the “% Survival 2 hr” value [7, 13] was 7.4%. For the same compound, the “% Survival after 2 hr” value [8] was 4.3%, the “% Survival after 2 hr” value [9, 13] was 0.71% and the “% Survival 2 hr” value ([10]; nisin 3 ug/ml, EDTA 0, pH 8.0) was 0.22%. For the same compound, the “% survival at 2 h” value ([2]; nisin 0.02 μg/ml, monolaurin 0) was 100%, the “% survival at 2 h” value ([2]; nisin 0.2 μg/ml, monolaurin 0) was 2.2% and the “% Survival 2 hr” value ([1]; nisin 100 μg/ml, monooleate 0) was 0.56%.

`O=C([O-])CN(CCN(CC(=O)[O-])CC(=O)O)CC(=O)O.[Na+].[Na+]` [EDTA] was tested, and the “Percentage S. typhimurium Survival at 3 hours” value ([3]; EDTA 20 mM, nisin 0, 20 mM Tris pH 8.0) was 2.5%, the “% Survival at 2 hours” value ([3]; EDTA 1.0 mM, BSA 1.0%, nisin 0, 20 mM Tris pH 8.0) was 63% and the “% Survival at 2 hours” value ([3]; EDTA 2.0 mM, nisin 0, 20 mM Tris pH 8.0) was 8.7%. The “% Survival at 2 hours” value ([3]; EDTA 2.0 mM, nisin 0, 50 mM sodium acetate pH 5.0) was 38.7%, the “% Survival at 2 hours” value ([3]; EDTA 10 mM, nisin 0, pH 5.0) was 15.2% and the “% Survival at 2 hours” value ([3]; EDTA 10 mM, nisin 0, pH 8.0) was 14%. For the same compound, the “% Survival at 2 hours” value ([3]; EDTA 50 mM, nisin 0, pH 5.0) was 3.5%, the “% Survival at 2 hours” value ([3]; EDTA 50 mM, nisin 0, pH 8.0) was 11.4% and the “% Survival at 2 hours” value ([3]; EDTA 100 mM, nisin 0, pH 8.0) was 45%. The “Percentage E. coli Survival at 2 hours” value ([4]; EDTA 20 mM, nisin 0) was 14.5%, the “% Survival at 2 hours” value ([5]; EDTA 20 mM, nisin 0, Tris pH 8.0) was 22% and the “% Survival at 2 hours” value ([6]; EDTA 1.0 mM, BSA 1.0%, nisin 0, pH 8.0) was 27%. The “% Survival at 2 hours (Unadhered cells)” value ([6]; EDTA 10 mM, nisin 0, methyl paraben 0, 50 mM Na acetate pH 5.0 (Table 10)) was 11.8%, the “% Survival at 2 hours (Unadhered cells)” value ([6]; EDTA 10 mM, nisin 0, pH 5.0 (Table 7)) was 6.4% and the “% Survival at 2 hours (Unadhered cells)” value ([6]; EDTA 10 mM, nisin 0, pH 8.0) was 5.2%. The “% Survival 2 hr” value ([7]; EDTA 0.3 mM, nisin 0, pH 8.0) was 100%, the “% Survival 2 hr” value ([7]; EDTA 1.0 mM, nisin 0, pH 8.0) was 81% and the “% Survival 2 hr” value ([7]; EDTA 3.0 mM, nisin 0, pH 5.0) was 100%. The “% Survival 2 hr” value ([7]; EDTA 3.0 mM, nisin 0, pH 8.0) was 100%, the “% Survival 2 hr” value ([7]; EDTA 10 mM, nisin 0, pH 8.0) was 100% and the “% Survival 2 hr” value ([7]; EDTA 30 mM, nisin 0, pH 8.0) was 100%. The “% Survival after 2 hr” value ([9]; EDTA 1.0 mM, nisin 0, 20 mM TrisHCl pH 8.0) was 84%, the “% Survival 2 hr” value ([10]; EDTA 0.3 mM, nisin 0, 20 mM TrisHCl pH 8.0) was 4.6% and the “% Survival 2 hr” value ([10]; EDTA 1.0 mM, nisin 0, pH 8.0) was 3.6%. The “% Survival 2 hr” value ([10]; EDTA 3.0 mM, nisin 0, pH 8.0) was 8%, the “% Survival 2 hr” value ([10]; EDTA 10 mM, nisin 0, pH 8.0) was 36% and the “% Survival” value ([11]; 3 min) was 100%. For the same compound, the “% Survival” value ([11]; 60 min) was 100% and the “% survival at 1 min” value [12] was 100%.
